The melting point is the temperature of the solid-liquid transition.

The values below come from patent US8778974B2, “Trisubstituted 1,2,4 triazoles” (Janssen Pharmaceutica NV, priority 2008, dated 2014).

The target in data set [1] is T1, hα7-wt nAChR-expressing GH4Cl cells (Homo sapiens, UniProt P36544).
T1 construct: expressed in transfected cells
The experiment in a line: Patch-clamp current recording (whole-cell), potentiation of choline 1 mM response, PAM type. It counts as cell-based. Set-up: key to Pam type: Type 0 compounds minimally enhance the effect size of the current elicited by 1 mM choline.; Type 1 compounds enhance the effect size of the current elicited by 1 mM choline but minimally alter the kinetics of the receptor.; Type 2 compounds enhance the effect size of the current elicited by 1 mM choline while reducing the rate and/or the extent of desensitization.; Type 3 compounds enhance the effect size of the current elicited by 1 mM choline. When tested at higher concentrations up to 10 μM they completely inhibit desensitization, in particular a 1 mM choline application of 250 milliseconds.; Type 4 compounds allow for an initial desensitization of the receptor followed by a re-opening of the receptor during agonist application. As to conditions: for EC50: according to Ex. D.2, "<5" = no top plateau reached at maximal concentration, read-out: Potency (pEC50) (converted); for Pam type: patch-clamp current recording, 1 mM choline. The method, boiled down: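 PAM type assigned qualitatively from current size and desensitization rate/extent when compound is applied simultaneously with 1 mM choline. Recordings: hα7-wt nAChR GH4Cl cells, whole-cell patch clamp, holding −70 mV, series resistance <15 MΩ with ≥60% compensation, pH 7.3 HEPES solutions, solution switching <100 ms.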
On the technique in general: In patch-clamp work, channel activity is measured electrically.

Data set [2] addresses T2, hα7-wt nAChR-expressing cells (Homo sapiens, UniProt P36544).
T2 construct: expressed in transfected cells; host or cells: hα7-wt nAChR-expressing cells
Kind of data set: Ca2+ flux imaging (FDSS) (Protocol B), PAM activity with choline 100 μM. The format is cell-based. Conditions: according to Ex. D.1b; read-out: % Efficacy. On the procedure:
Ca^2+ Flux Imaging (FDSS) (Protocol B)
• a) Assay buffer • Hanks buffered saline solution (HBSS, Invitrogen, Belgium), supplemented with 10 mM HEPES (Invitrogen, Belgium), CaCl2 to a final concentration of 5 mM, 0.1% Bovine serum albumin (Sigma-Aldrich NV, Belgium). • b) Calcium-sensitive dye—Fluo-4AM • Fluo-4AM (Molecular Probes, USA) was dissolved in DMSO containing 10% Pluronic acid (Molecular Probes, USA) to give a stock solution which was diluted in assay buffer supplemented with 5 mM probenicid (Sigma, Al-drich NV, Belgium) to give a final concentration of 2 μM. • c) 384-well plates • Black 384 well plate black/clear plates, PDL pre-coated (Corning, Incorporated, USA) • d) Calcium flux measurement • A Functional drug screening system (FDSS, Hamamatsu) was used to measure intracellular free-calcium flux signals. Method
Monolayers of hα7-wt nAChR-expressing cells were grown in multi-well plates, in particular black-sided, transparent bottomed 384 well plates coated with poly-D-lysine for 24 hours prior to loading with a fluorescent calcium indicator, in a particular embodiment loading with fluo-4AM for up to 120 minutes.
PAM activity was detected in real time by applying the compounds to be tested to the loaded cells along with a α7 nicotinic receptor agonist during constant monitoring of cellular fluorescence in a FDSS. Compounds giving peak fluorescent responses greater than the response due to agonist alone, were considered to be α7 nAChR PAM's. In a particular embodiment, the α7 nicotinic receptor agonist was choline, a more particular embodiment choline applied at a sub-maximal concentration of 100 μM. In a further setting of the present invention the compounds to be tested were applied prior to the α7 nicotinic receptor agonist, in a particular embodiment up to 10 minutes prior to the agonist.
A control response to choline was calculated on each plate from the difference in peak in fluorescence in wells receiving either choline or assay buffer alone. Compounds of the present invention were tested at a concentration range from 0.01 μM to 30 μM. Compounds were considered to have an interesting activity when they potentiated the choline signal at least with 500% when tested at a concentration of 30 μM (the efficacy of 100 μM choline was defined as 100% in the absence of a PAM). The compounds also have a potentiating effect on the response to choline when measured by whole-cell patch clamp electrophysiology in GH4Cl cells stably over-expressing the human wild-type α7 receptor.
(Calcium assays in cells follow changes in intracellular calcium, usually with a dye or a luminescent sensor.)

T2 sequence (P36544 23-502): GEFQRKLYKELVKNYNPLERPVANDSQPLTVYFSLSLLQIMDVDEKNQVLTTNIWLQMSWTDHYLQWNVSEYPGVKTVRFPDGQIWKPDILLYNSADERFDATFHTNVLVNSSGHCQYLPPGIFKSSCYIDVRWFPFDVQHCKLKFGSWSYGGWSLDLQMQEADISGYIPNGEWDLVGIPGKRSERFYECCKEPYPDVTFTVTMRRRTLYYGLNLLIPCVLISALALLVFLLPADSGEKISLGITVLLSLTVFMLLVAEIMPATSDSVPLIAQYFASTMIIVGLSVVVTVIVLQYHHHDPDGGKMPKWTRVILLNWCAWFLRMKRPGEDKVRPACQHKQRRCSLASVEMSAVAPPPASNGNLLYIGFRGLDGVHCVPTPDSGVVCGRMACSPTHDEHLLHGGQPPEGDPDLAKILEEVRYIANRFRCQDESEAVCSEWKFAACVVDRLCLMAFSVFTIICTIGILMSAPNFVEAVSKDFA
T1 sequence (P36544 23-502): as above

Compound `Cc1cc(-n2nc(Nc3ccc(F)c(C(F)(F)F)c3)nc2CC(=O)NC2CCC2)cc(C)n1` [E225] gave a melting point of 248.8 °C. In addition, in data set [1], the EC50 was 100 nM and the Pam type is 0. Moreover, in data set [2], the Emax was determined as 660%.

Turning to `CCNC(=O)Cc1nc(Nc2cc(F)cc(C(F)(F)F)c2)nn1-c1cc(C)nc(C)c1` [E252], the melting point was found to be 284.5 °C. Moreover, in data set [1], the EC50 is 195 nM. Moreover, the Emax in data set [2] amounted to 930%.

`COc1cc(Nc2nc(CC(=O)NC3CCC3)n(-c3cc(C)nc(C)c3)n2)cc(C(F)(F)F)c1` [E244] showed a melting point of 278.4 °C. In addition, in data set [1], the EC50 is 31.6 nM. Further, the Emax in data set [2] came to 701%.

`CNC(=O)Cc1nc(Nc2cc(F)cc(Cl)c2)nn1-c1cc(C)nc(C)c1` [E245]: the melting point is 280.7 °C. Moreover, in data set [1], the EC50 is 398 nM. Besides, the Emax in data set [2] was 614%.

In the case of `CNC(=O)Cc1nc(Nc2ccc(F)c(C(F)(F)F)c2)nn1-c1cc(C)nc(C)c1` [E223], the melting point came to 264.2 °C. Moreover, in data set [1], the EC50 was 316 nM. The Emax in data set [2] is 603%.

With `CNC(=O)CCc1nc(Nc2ccc(F)c(F)c2)nn1-c1ccc(Cl)cc1` [E40], the melting point stood at 177.3 °C. The EC50 in data set [1] is 1910 nM. For the same compound, in data set [2], the Emax was found to be 495%.

Turning to `Cc1cc(-n2nc(Nc3ccc(F)c(F)c3)nc2C[C@H](C)O)cc(C)n1` [E141], the melting point worked out at 225.7 °C. For the same compound, in data set [1], the EC50 is 1380 nM and the Pam type is listed as 2. Besides, in data set [2], the Emax stood at 961%.

Compound `C/C=C/c1nc(Nc2ccc(F)c(C(F)(F)F)c2)nn1-c1ccnc(C)c1` [E11, N-[4-Fluoro-3-(trifluoromethyl)phenyl]-1-(2-methyl-4-pyridinyl)-5-[(1E)-1-propenyl]-1H-1,2,4-triazol-3-amine] gave a melting point of 226.3 °C. Also, in data set [1], the EC50 was 138 nM. Besides, in data set [2], the Emax was found to be 341%.

Take `COc1ccc(Nc2nc(CC(=O)NC3CC3)n(-c3cc(C)nc(C)c3)n2)cc1C(F)(F)F` [E229]: the melting point turned out to be 265.7 °C. In data set [1], the EC50 is 135 nM and the Pam type is 4. Also, in data set [2], the Emax was found to be 680%.

`Cc1cc(-n2nc(Nc3ccc(F)c(F)c3)nc2CCC(=O)N(C)C)cc(C)n1` [E234, 3-[(3,4-difluorophenyl)amino]-1-(2,6-dimethyl-4-pyridinyl)-N,N-dimethyl-1H-1,2,4-triazole-5-propanamide]: the melting point came to 200.2 °C. In data set [1], the EC50 is 61.7 nM. Also, the Emax in data set [2] was 459%.

For `Cc1cc(-n2nc(Nc3ccc(F)c(F)c3)nc2CC(=O)NCC2CC2)c(C)cn1` [E166], the melting point was determined as 211.2 °C. Moreover, in data set [1], the EC50 was 2340 nM and the Pam type was determined as 1. Further, the Emax in data set [2] is 589%.

Turning to `CCNC(=O)Cc1nc(Nc2cc(F)cc(F)c2)nn1-c1cc(C)nc(C)c1` [E237], the melting point stood at 289 °C. Moreover, the EC50 in data set [1] was 407 nM. For the same compound, in data set [2], the Emax was 522%.

In turn, `Cc1cc(-n2nc(Nc3cc(F)cc(Cl)c3)nc2CC(=O)NC2CC2)cc(C)n1` [E247] returned a melting point of 289.3 °C. Moreover, the EC50 in data set [1] was 214 nM. In addition, the Emax in data set [2] came to 663%.

As to `Cc1cc(-n2nc(Nc3ccc(F)c(Cl)c3)nc2CC(=O)NC2CC2)cc(C)n1` [E230], the melting point was 287.4 °C. For the same compound, in data set [1], the EC50 is 141 nM. Moreover, the Emax in data set [2] came to 417%.

On to `Cc1cc(-n2nc(Nc3ccc(F)c(F)c3)nc2C[C@@H](C)O)ccn1` [E198], for which the melting point worked out at 210.3 °C. In data set [1], the EC50 was 1860 nM and the Pam type came out at 2. Further, the Emax in data set [2] was 808%.

The compound `Cc1cc(-n2nc(Nc3cc(F)cc(C(F)(F)F)c3)nc2CC(=O)NC2CCC2)cc(C)n1` [E254] displayed a melting point of 291.8 °C. In addition, in data set [1], the EC50 was 75.9 nM. Moreover, in data set [2], the Emax was 662%.

The compound `CCNC(=O)Cc1nc(Nc2cc(Cl)cc(OC)c2)nn1-c1cc(C)nc(C)c1` [E219] yielded a melting point of 254 °C. Further, in data set [1], the EC50 was 269 nM and the Pam type was 4. Besides, in data set [2], the Emax worked out at 702%.

In turn, `Cc1cc(-n2nc(Nc3cc(F)cc(F)c3)nc2CC(=O)NC2CC2)cc(C)n1` [E238] returned a melting point of 289.2 °C. Besides, the EC50 in data set [1] was 575 nM. Moreover, the Emax in data set [2] stood at 382%.

Regarding `CNC(=O)Cc1nc(Nc2cc(F)c(F)c(F)c2)nn1-c1cc(C)nc(C)c1` [E240], the melting point amounted to 297.4 °C. In addition, the EC50 in data set [1] is 490 nM. In addition, in data set [2], the Emax was found to be 628%.

In turn, `Cc1cc(-n2nc(Nc3cc(F)cc(F)c3)nc2CC(=O)NC2CCC2)cc(C)n1` [E239] displayed a melting point of 286.7 °C. For the same compound, the EC50 in data set [1] is 126 nM. Further, the Emax in data set [2] was 372%.

Turning to `Cc1cc(-n2nc(Nc3ccc4c(c3)OC(F)(F)O4)nc2CCC(=O)N(C)C)cc(C)n1` [E235, 3-[(2,2-difluoro-1,3-benzodioxol-5-yl)amino]-1-(2,6-dimethyl-4-pyridinyl)-N,N-dimethyl-1H-1,2,4-triazole-5-propanamide], the melting point is 178 °C. Further, the EC50 in data set [1] was 28.8 nM. Further, the Emax in data set [2] is 419%.

Compound `CCNC(=O)Cc1nc(Nc2ccc(F)c(Cl)c2)nn1-c1cc(C)nc(C)c1` [E250] returned a melting point of 283.2 °C. The EC50 in data set [1] was 105 nM. Moreover, in data set [2], the Emax was found to be 546%.
